Source: PMC10511816 (The Journal of Biological Chemistry, 2023)

What was measured:
[1] = test system: mouse model of hyperuricemia; experiment: mouse model of hyperuricemia (potassium oxonate), plasma purines by HPLC; type: in vivo; conditions: for plasma hypoxanthine levels vs control / plasma xanthine levels vs control: 1 h
Description: To compare the inhibitory effect of allopurinol and oxypurinol on uric acid production, mice were treated with oxonate to inhibit uricase and induce hyperuricemia.
Figure 2 Comparison of the effects of allopurinol and oxypurinol in a model of hyperuricemia. […] Statistical analysis was performed using one-way ANOVA and Turkey’s multiple comparison test. ∗p < 0.05, ∗∗p < 0.01, ∗∗∗∗p < 0.0001.
Six-week-old specific-pathogen free-grade male Institute of Cancer Research mice were purchased from Japan SLC. All animal experiments were performed according to the protocol approved by the Animal Care and Ethics Committee of Tokyo University of Pharmacy and Life Sciences (Permit No. P21-80). Mice were housed under conditions of 22 to 24 °C, 40 to 60% humidity, and a 12-h light/12-h dark cycle. Food and water were administered ad libitum.
Oxypurinol or allopurinol was suspended in 0.5% carboxymethyl cellulose and administered intraperitoneally at 3 mg/kg or 10 mg/kg (n = 11). The control group received 0.5% carboxymethyl cellulose (n = 5). Immediately after intraperitoneal administration, potassium oxonate was injected subcutaneously at 300 mg/kg. One hour after administration, mice were sacrificed by cervical dislocation, and blood was collected with heparin. […] Statistical analysis was performed using GraphPad Prism 9 software (www.graphpad.com).
Purine concentrations were measured using a Shimadzu HPLC system consisting of the CBM-20A controller, LC-20AD pump, SIL-20AC autosampler (set at 4 °C), CTO-20A column oven (set at 40 °C), and SPD-M20A diode array detector. Peak analysis was performed using LC solution software. A SUPELCOSIL LC-18-T column (25 cm × 4.6 mm id 5 μm particle size) was used with the SUPELCOSIL LC-18-T Supelguard guard column separation of purines, using a flow rate was 0.8 ml/min and 10 or 20 μl samples. The mobile phase used was A: 0.1 M KPB and 4 mM tetrabutylammonium hydrogen sulfate (pH 5.5), B: 70% buffer A and 30% methanol (v/v). Gradient conditions were 0 min (0% B), 2 min (0% B), 4 min (30% B), 12 min (60% B), 15 min (100% B), 19 min (100% B), 20 min (0% B), and 30 min (0% B). Detection wavelengths were 254 nm, 268 nm, and 295 nm. The data were analyzed using LabSolutions Ver. 5.97 SP1. All purines were identified by retention time and quantified using an external standard.

[2] = target: T1, XO type enzyme (xanthine oxidase) (Bos taurus, UniProt P80457); experiment: time-dependent inhibition of uric acid production from xanthine by XO (A295); type: biochemical, bovine; conditions: for 50% inhibition time of uric acid production / stop time of uric acid production: pH 8.5, 25 °C
T1 construct: Bovine milk was obtained from the animal farm of the Nippon Veterinary and Life Science University; from tissue; host or cells: bovine milk
T1 sequence (P80457 whole entry): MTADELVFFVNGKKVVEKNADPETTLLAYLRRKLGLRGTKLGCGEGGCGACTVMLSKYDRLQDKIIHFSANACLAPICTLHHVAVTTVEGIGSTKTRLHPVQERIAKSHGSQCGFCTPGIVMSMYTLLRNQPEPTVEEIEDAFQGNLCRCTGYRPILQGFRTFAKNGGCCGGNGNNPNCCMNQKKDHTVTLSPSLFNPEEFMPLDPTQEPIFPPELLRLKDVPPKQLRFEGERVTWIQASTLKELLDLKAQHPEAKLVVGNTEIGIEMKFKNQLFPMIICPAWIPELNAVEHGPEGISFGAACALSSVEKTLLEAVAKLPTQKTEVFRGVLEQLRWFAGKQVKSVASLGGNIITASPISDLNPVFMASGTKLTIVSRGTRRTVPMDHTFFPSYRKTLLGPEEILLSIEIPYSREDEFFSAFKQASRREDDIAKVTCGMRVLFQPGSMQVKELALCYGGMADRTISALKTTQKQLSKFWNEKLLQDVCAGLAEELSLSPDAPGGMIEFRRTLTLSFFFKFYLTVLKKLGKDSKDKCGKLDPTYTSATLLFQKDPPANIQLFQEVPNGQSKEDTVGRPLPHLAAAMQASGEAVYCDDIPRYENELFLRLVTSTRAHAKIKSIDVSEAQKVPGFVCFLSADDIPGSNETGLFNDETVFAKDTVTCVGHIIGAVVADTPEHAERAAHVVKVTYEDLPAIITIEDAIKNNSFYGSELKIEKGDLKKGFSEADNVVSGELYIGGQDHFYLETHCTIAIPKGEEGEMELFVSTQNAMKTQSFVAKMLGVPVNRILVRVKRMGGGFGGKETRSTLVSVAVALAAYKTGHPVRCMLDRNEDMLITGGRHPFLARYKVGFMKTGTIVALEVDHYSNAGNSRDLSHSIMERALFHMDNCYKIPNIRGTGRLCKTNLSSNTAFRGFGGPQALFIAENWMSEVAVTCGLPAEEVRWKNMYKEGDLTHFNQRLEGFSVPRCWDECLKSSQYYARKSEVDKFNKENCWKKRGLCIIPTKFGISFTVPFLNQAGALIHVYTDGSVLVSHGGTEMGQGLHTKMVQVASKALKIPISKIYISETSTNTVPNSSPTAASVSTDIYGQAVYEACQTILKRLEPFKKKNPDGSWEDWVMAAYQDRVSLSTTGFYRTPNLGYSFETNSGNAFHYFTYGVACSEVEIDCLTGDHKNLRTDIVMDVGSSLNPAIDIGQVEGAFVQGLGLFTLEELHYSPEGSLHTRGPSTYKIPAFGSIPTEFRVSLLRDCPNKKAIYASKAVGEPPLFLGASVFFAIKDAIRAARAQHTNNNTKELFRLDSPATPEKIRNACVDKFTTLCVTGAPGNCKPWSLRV
Description: A295 indicates the concentration of uric acid yielded by XOR. […] Uric acid production was measured at 295 nm at 25 °C.
(§1) Bovine milk was obtained from the animal farm of the Nippon Veterinary and Life Science University. […] The dehydrogenase form of the enzyme (XDH) was obtained by reacting XO immediately upon purification with 5 mM DTT at pH 8.5, 25 °C for 1 h. XO and XDH assays were carried out at 25 °C under aerobic conditions. […] A total of 500 μM β-NAD^+ was added to the same reaction solution for XDH activity. Physiological conditions such as pH 7.4 (0.1 M potassium phosphate buffer (KPB), 0.2 mM EDTA) and the addition of 50 μM β-NADH were also used. The activity was measured by following 295 nm and 340 nm on a UV-1800 or UV1900i spectrophotometer. […] In addition, the enzyme reaction solution was quenched with perchloric acid and neutralized with K2CO3, with products analyzed using HPLC as described below. Spectrophotometric data were analyzed using UV-Probe software Ver. 2.70 or LabSolutions UV-Vis Ver. […] Kinetic parameters were determined from nonlinear curve fits of raw data using GraphPad Prism 9 software.

XDH = XDH (Bos taurus, UniProt P80457); experiment: initial-velocity steady-state kinetics of XDH, NAD+ as electron acceptor; type: biochemical, bovine; parameters: Bovine milk was obtained from the animal farm of the Nippon Veterinary and Life Science University; from tissue; host or cells: bovine milk; conditions: for Types of inhibition / Ki: XDH; for Types of inhibition: NAD+
XDH, sequence (P80457 whole entry): as above
Description: as §1
A295 indicates the concentration of uric acid yielded by XOR. […] A295 indicates the concentration of uric acid yielded by XOR. Figure S2. The XOR inhibition mode of oxypurinol.A–G, Lineweaver-Burk plots were generated to visualize data and estimated the inhibition patterns. Data are representative of least two independent experiments. […] Figure S3. […] B, mode of inhibition of oxypurinol on the inosine degradation reaction of PNP. […] 0, 250, 375, 500, 750 and 1000 μM of oxypurinol were used. […] The rate of NAD^+ conversion to NADH was measured at A340 nm.

[3] = cited from earlier work
[4] = 3 mg/kg intraperitoneal, 1 h after administration, oxonate-treated mice
[5] = one hour after 3 mg/kg allopurinol intraperitoneal
[6] = xanthine 5 μM, inhibitor 2 μM, XO
[7] = xanthine 10 μM, inhibitor 2 μM, XO
[8] = xanthine 50 μM, inhibitor 2 μM, XO
[9] = xanthine 50 μM, inhibitor 10 μM, XO
[10] = xanthine 50 μM, inhibitor 50 μM, XO
[11] = as substrate of XDH, electron acceptor NAD+, 340 nm, mean ± S.E.
[12] = xanthine 2 μM, inhibitor 2 μM, XO
[13] = xanthine 2 μM, inhibitor 10 μM, XO
[14] = xanthine 5 μM, inhibitor 10 μM, XO

With `Oc1ncnc2[nH]ncc12` [Allopurinol] the “plasma hypoxanthine levels vs control” value ([1]; 3 mg/kg intraperitoneal) was “significantly increased plasma hypoxanthine levels”, the “plasma xanthine levels vs control” value ([1]; 3 mg/kg intraperitoneal) was “xanthine levels were largely unaffected” and the “plasma uric acid levels compared to the control group” value [1, 4] was “significantly decreased plasma uric acid levels”. The allopurinol in plasma [1, 5] was “little allopurinol was detected in the plasma”, the oxypurinol in plasma [1, 5] was “a small amount of oxypurinol was also observed” and the “effect on uric acid production” value ([2]; 10 μM or 50 μM inhibitor, 50 μM xanthine, XO) was “stops uric acid production immediately”. For the same compound, the “50% inhibition time of uric acid production” value [2, 6] was 1.0 min, the “stop time of uric acid production” value [2, 6] was 3.0 min and the “50% inhibition time of uric acid production” value [2, 7] was 1.4 min. The “stop time of uric acid production” value [2, 7] was 6.9 min, the “50% inhibition time of uric acid production” value [2, 8] was 3.8 min and the “stop time of uric acid production” value [2, 8] was 14.9 min. For the same compound, the “50% inhibition time of uric acid production” value [2, 9] was 1.2 min, the “stop time of uric acid production” value [2, 9] was 4.5 min and the “50% inhibition time of uric acid production” value [2, 10] was 0.2 min. The “stop time of uric acid production” value [2, 10] was 0.7 min, the Km (XDH; [11]) was 4.23 ± 0.52 µM and the kcat (XDH; [11]) was 1.83 ± 0.92 s⁻¹. For the same compound, the serum oxypurinol concentrations ([3]; patients receiving 300 mg allopurinol daily for more than 2 weeks) was “greater than 100 μM”.

For `O=c1[nH]c(=O)c2c[nH]nc2[nH]1` [Oxypurinol], the “plasma hypoxanthine levels vs control” value ([1]; 3 mg/kg intraperitoneal) was “neither hypoxanthine nor xanthine concentrations were significantly different from the control group”, the “plasma xanthine levels vs control” value ([1]; 3 mg/kg intraperitoneal) was “neither hypoxanthine nor xanthine concentrations were significantly different from the control group” and the “plasma uric acid levels compared to the control group” value [1, 4] was “did not significantly reduce plasma uric acid levels”. The “plasma hypoxanthine levels vs control” value ([1]; 10 mg/kg intraperitoneal) was “neither hypoxanthine nor xanthine concentrations were significantly different from the control group”, the “plasma xanthine levels vs control” value ([1]; 10 mg/kg intraperitoneal) was “neither hypoxanthine nor xanthine concentrations were significantly different from the control group” and the “plasma uric acid levels” value ([1]; 10 mg/kg intraperitoneal, 1 h after administration, oxonate-treated mice) was “reduce plasma uric acid to that seen with 3 mg/kg allopurinol”. The mode of inhibition ([2]; 2 μM xanthine, 0.1 M KPB pH 7.4) was “strictly competitive”, the “uric acid production in presence of inhibitor” value ([2]; 2 μM xanthine, 0.1 M KPB pH 7.4, 0 to 400 μM oxypurinol) was “uric acid production was evident even with 400 μM oxypurinol” and the “50% inhibition time of uric acid production” value [2, 12] was 9.0 min. For the same compound, the “stop time of uric acid production” value [2, 12] was 58.3 min, the “50% inhibition time of uric acid production” value [2, 13] was 14.9 min and the “stop time of uric acid production” value [2, 13] was 89.0 min. The “50% inhibition time of uric acid production” value ([2]; xanthine 2 μM, inhibitor 50 μM, XO) was 49.5 min, the “ratio of 50% inhibition time, oxypurinol (min)/allopurinol (min)” value (shortened to “ratio of 50% inhibition time, oxypurinol”) ([2]; xanthine 5 μM, inhibitor 2 μM) was 10.8 and the “ratio of stop time, oxypurinol (min)/allopurinol (min)” value ([2]; xanthine 5 μM, inhibitor 2 μM) was 25.9. For the same compound, the “50% inhibition time of uric acid production” value [2, 6] was 10.8 min, the “stop time of uric acid production” value [2, 6] was 77.7 min and the “50% inhibition time of uric acid production” value [2, 14] was 20.1 min. For the same compound, the “stop time of uric acid production” value [2, 14] was 119.4 min, the “50% inhibition time of uric acid production” value ([2]; xanthine 5 μM, inhibitor 50 μM, XO) was 38.3 min and the “ratio of 50% inhibition time, oxypurinol” value ([2]; xanthine 10 μM, inhibitor 2 μM) was 10.9. The “ratio of stop time, oxypurinol (min)/allopurinol (min)” value ([2]; xanthine 10 μM, inhibitor 2 μM) was 14.7, the “50% inhibition time of uric acid production” value [2, 7] was 15.3 min and the “stop time of uric acid production” value [2, 7] was 101.4 min. For the same compound, the “50% inhibition time of uric acid production” value ([2]; xanthine 10 μM, inhibitor 10 μM, XO) was 20.8 min, the “50% inhibition time of uric acid production” value ([2]; xanthine 10 μM, inhibitor 50 μM, XO) was 19.7 min and the “ratio of 50% inhibition time, oxypurinol” value ([2]; xanthine 50 μM, inhibitor 2 μM) was 8.6. For the same compound, the “50% inhibition time of uric acid production” value [2, 8] was 32.7 min, the “ratio of 50% inhibition time, oxypurinol” value ([2]; xanthine 50 μM, inhibitor 10 μM) was 10.8 and the “50% inhibition time of uric acid production” value [2, 9] was 13.0 min. The “ratio of 50% inhibition time, oxypurinol” value ([2]; xanthine 50 μM, inhibitor 50 μM) was 34.0, the “50% inhibition time of uric acid production” value [2, 10] was 6.8 min and the Types of inhibition (XDH; substrate hypoxanthine, 340 nm) was “Competitive”. The Ki (XDH; substrate hypoxanthine, electron acceptor NAD+, 340 nm, mean ± S.E.) was 3.15 ± 0.22 µM, the Types of inhibition (XDH; substrate xanthine, 295 nm) was “Competitive” and the Ki (XDH; substrate xanthine, electron acceptor NAD+, 295 nm, mean ± S.E.) was 4.6 ± 0.87 µM. The “oxypurinol concentrations necessary to achieve target serum uric acid levels” value ([3]; ref Stamp et al. 5, 16) was greater than 100 µmol/L.
